Laboratory results as given in US9181309B1, “Peptide regulation of maize defense responses” (The United States of America, as represented by the …, priority 2011, dated 2015).

Experiments:
Assay type in all cases: in vivo, Zea mays
[1] = tested on: defense-related genes in excised maize leaves; test: Excised leaf bioassay, semi-quantitative RT-PCR of defense marker genes
Description: Over a 16.5 hour time-course, excised maize leaves were supplied with either a solution of ZmPEP3 peptide or with a water control. Based on the average volume of ZmPEP3 solution taken up by the maize leaves, each leaf was exposed to around 1.8 nMols of peptide per gram of leaf material over the time course study. Zero hour treatments indicate leaves that were immediately harvested at the beginning of the study; the other time points refer to hours elapsed after leaves were excised and placed into solution. As a control to observe herbivory-induced expression of these genes, a timecourse of exposure to herbivory by Spodoptera frugiperda (fall armyworm, FAW) was performed for comparison. As described in the Material and Methods, when using the semi-quantitative RT-PCR analysis technique, observed band intensity is indicative of initial transcript abundance in a sample, thus bands of greater intensity represent sample with enriched transcript abundance.
Maize tissues that had been harvested and frozen in liquid nitrogen were ground to a fine powder using a porcelain mortar and pestle. Approximately 100 mg of frozen powdered plant material was transferred to a 2 mL microcentrifuge tubes to which 1 mL of Trizol reagent (Invitrogen, Carlsbad Calif.) was added. RNA isolation was performed as per the Trizol instructions, supplemented by an acid:phenol:chloroform partitioning step to minimize contaminating DNA. RNA was solublized in 50 μL diethylpyrocarbonate (DEPC)-treated water. RNA yield was quantified by measuring the A260, and the samples were stored at −20° C.
RNA was reverse transcribed using all components from the RETROscript kit (Ambion, Austin Tex.). The 20 μL reverse transcription reactions were assembled as per kit instructions The reverse transcription reaction was allowed to proceed for one hour at 44° C., followed by a ten minute incubation at 92° C.
Semi-quantitative RT-PCR reactions were assembled as follows: 1.2 μL of the cDNA generated in the reverse transcription reactions was used as template for 25 μL PCR reactions. Each reaction contained Platinum 10×PCR buffer (Invitrogen, Carlsbad Calif.) and the final concentration of Mg^2+ and dNTPs were 1.5 mM and 200 μM, respectively. Platinum Taq polymerase (Invitrogen, Carlsbad Calif.) was added at 0.5 units per reaction, while primers were used at 0.4 μM each. All primers were designed to for an annealing temperature of 56° C., to amplify a product of 250 to 350 base pairs and to span introns when possible. The ZmActin1 gene transcript (GenBank# J01238) has been described in the literature as an effective housekeeping control transcript for the study of maize defense gene expression (Erb et al., 2009), and was therefore used to permit comparisons of relative transcript abundance from sample to sample. Genes to be analyzed for responsiveness to ZmPep3 were all shown in previous work to be associated with either pathogen or herbivore resistance (Erb et al., Plant J 59: 292, 2009; Doehlemann et al., Plant J. 56:181, 2008; Köliner et al., Plant Cell 20: 482, 2008; Chen et al., Phytopathology 94:938, 2004; Chen et al., Phytopathology 97:1094, 2007; Schnee et al., Plant Physiol 130: 2049, 2002; Frey et al., Proc Natl Acad Sci USA. 97:14801, 2000).

[2] = tested on: volatile emission from maize leaves; test: Volatile collection and GC analysis of emitted volatiles from excised maize leaves
Description: Volatiles were collected by a previously described method (Schmelz et al., Planta. 214:171, 2001). Briefly, excised leaves were placed in glass cylinders (Analytical Research Systems, Gainesville, Fla., USA) and maintained under their original lighting conditions. Clean, humidified air was passed through the cylinders (550 ml/min) and the leaf-emitted volatiles were trapped on 50 mg Super Q (80/100 mesh; Alltech, Deerfield, Ill., USA) for 30 minutes. Super Q traps were eluted with 150 μl methylene chloride with 400 ng of nonyl acetate added as an internal standard. At least three leaf replicates were used for each treatment. Volatiles were analyzed by gas chromatography-mass spectrometry (GC-MS) using an Agilent (Agilent Technologies, Inc., Santa Clara, Calif.) 7890A gas chromatograph (carrier gas; He at 1.2 ml min^−1; splitless injector, temperature 220° C., injection volume 1 μl) with an DB-1MS column (100% Dimethylpolysiloxane; 15 m long, 250 μm i.d., 0.1 μm film thickness). Temperatures were programmed from 40° C. (0.5 min hold) at 12° C. min^−1 to 180° C. then 220° C. (2.0 min hold for the post run). Signals were captured with a flame ionization detector (250° C.). The GC was coupled to an HP 5973 quadrupole-type mass selective detector with transfer line, source, and quadrupole temperatures of 230° C., 230° C. and 150° C., respectively. […] Volatile compounds were identified by comparison of retention times with authentic standards and by comparison of mass spectra with Wiley and NIST libraries.

[3] = tested on: defense metabolites in maize leaves; test: Accumulation of defense metabolites within treated leaves (internal pools)
Text: Induced terpene production is vital to anti-herbivore defenses in many plant species (Unsicker et al., Curr Opin Plant Biol. 12:479, 2009; Tholl, Curr Opin Plant Biol. 9:297, 2006; Keeling and Bohlmann, New Phytol 170:657, 2006). […] Expression of genes encoding the relevant biosynthetic enzymes, Anthranilic Acid Methyl Transferase 1 (AAMT1) and Indole-Glycerol Phosphate Lyase (IGL) were induced by both peptide and the insect elicitor ([…]., Plant Physiol 153:1795, 2010; Frey et al., Proc Natl Acad Sci USA. 97:14801, 2000). In addition to proteinaceous defenses, maize benzoxazinoids contribute to direct defenses against both herbivores and pathogens ([…] Agric Food Chem 57:1677, 2009). […] Oikawa et al., Phytochemistry. 56:669, 2001; Huffaker et al., Plant Physiol. 155:1325, 2011). […] It is hypothesized that simultaneous activation of both IGL and BX1 by ZmPep3 results in increased flux through the benzoxazinoid pathway to produce HDMBOA-Glc.

[4] = later time points, vs water-supplied leaves

## ZmPEP3: 23 amino acid maize plant elicitor peptide TRTPPWPPCPPEEGSGGNGGSHN (SEQ ID NO: 3) (Zea mays)
[1]; excised leaf assays
  number of defense-related genes identified as ZmPEP3-responsive: twenty
[1]; excised leaves, around 1.8 nMols of peptide per gram of leaf
  time at which AOS transcript increases in abundance: 2 h
[1]; excised leaves, around 1.8 nMols of peptide per gram of leaf, early time points, vs water
  endochitinase A transcript levels: increased transcript levels at all early time points
[1]; later time points
  IGL expression: strongly induced
[1]; [4]
  AOS transcript levels: markedly increased
  TPS23 transcript abundance: increased greatly
[1]; later timepoints, not detectable in water-supplied leaves
  peroxidase transcript accumulation: marked induction of transcript accumulation
[2]; 1.8 nMol peptide per gram of leaf material
  increase in total defense volatile emission compared to water-supplied leaves: 91%
[2]; 18 or 180 fMols of peptide per gram of leaf, 30 minutes collection
  volatile profile vs water-supplied leaves: almost the same as leaves supplied with water
[2]; 30 minutes collection
  lowest concentration with significant increases in defense volatile emission: 1.8 pMol ZmPEP3 peptide per gram of leaf material
[2]; GC, vs water-supplied leaves
  profile of volatile compounds emitted in thirty minutes: Many molecules are detected
[2]; equivalent molar concentrations
  difference in terpenes emitted, ZmPep3 versus Gln-18:3: no significant quantitative difference
[2]; in vivo
  indole emission relative to damage alone: increased above damage alone
  spectrum of elicited volatile components compared with S. exigua herbivory: same spectrum of volatile components
[2]; six hour period
  increase in DMNT emission over water-treated leaves: 6 fold
  increase in alpha-bergamotene emission over water-treated leaves: over a thousand fold
  increase in beta-caryophyllene emission over water-treated leaves: over 100 fold
  increase in beta-farnesene emission over water-treated leaves: over 900 fold
  increase in indole emission over water-treated leaves: over 100 fold
  increase in nerolidol emission over water-treated leaves: 360 fold
[3]; following treatment
  anthranilate and indole in leaves: increased
[3]; in vivo
  HDMBOA-Glc accumulation: increased accumulation
  anthranilate and indole accumulation, peptide vs Gln-18:3: significantly greater accumulation
[3]; measured prior to volatile collection
  accumulation of terpenes in internal pools, ZmPep3 vs Gln-18:3: significantly greater accumulation of terpenes
